Measured values reported in US20240376099A1, “COMPOUNDS AND COMPOSITIONS AS INHIBITORS OF ENDOSOMAL TOLL-LIKE RECEPTORS” (Novartis AG, priority 2016, published 2024).

Each compound was assayed against T1, TLR9 (Homo sapiens, UniProt Q9NR96) (assay: huPBMC TLR9 Antagonist IFNα Assay). Conditions: human PBMCs stimulated with ODN2216 0.3 μM, 14-16 hrs; IFNα2b AlphaLISA read-out.
T1 construct: Fresh blood was collected from normal human donors; endogenous in cells; host or cells: human PBMCs from fresh donor blood
T1 sequence (Q9NR96 26-1032): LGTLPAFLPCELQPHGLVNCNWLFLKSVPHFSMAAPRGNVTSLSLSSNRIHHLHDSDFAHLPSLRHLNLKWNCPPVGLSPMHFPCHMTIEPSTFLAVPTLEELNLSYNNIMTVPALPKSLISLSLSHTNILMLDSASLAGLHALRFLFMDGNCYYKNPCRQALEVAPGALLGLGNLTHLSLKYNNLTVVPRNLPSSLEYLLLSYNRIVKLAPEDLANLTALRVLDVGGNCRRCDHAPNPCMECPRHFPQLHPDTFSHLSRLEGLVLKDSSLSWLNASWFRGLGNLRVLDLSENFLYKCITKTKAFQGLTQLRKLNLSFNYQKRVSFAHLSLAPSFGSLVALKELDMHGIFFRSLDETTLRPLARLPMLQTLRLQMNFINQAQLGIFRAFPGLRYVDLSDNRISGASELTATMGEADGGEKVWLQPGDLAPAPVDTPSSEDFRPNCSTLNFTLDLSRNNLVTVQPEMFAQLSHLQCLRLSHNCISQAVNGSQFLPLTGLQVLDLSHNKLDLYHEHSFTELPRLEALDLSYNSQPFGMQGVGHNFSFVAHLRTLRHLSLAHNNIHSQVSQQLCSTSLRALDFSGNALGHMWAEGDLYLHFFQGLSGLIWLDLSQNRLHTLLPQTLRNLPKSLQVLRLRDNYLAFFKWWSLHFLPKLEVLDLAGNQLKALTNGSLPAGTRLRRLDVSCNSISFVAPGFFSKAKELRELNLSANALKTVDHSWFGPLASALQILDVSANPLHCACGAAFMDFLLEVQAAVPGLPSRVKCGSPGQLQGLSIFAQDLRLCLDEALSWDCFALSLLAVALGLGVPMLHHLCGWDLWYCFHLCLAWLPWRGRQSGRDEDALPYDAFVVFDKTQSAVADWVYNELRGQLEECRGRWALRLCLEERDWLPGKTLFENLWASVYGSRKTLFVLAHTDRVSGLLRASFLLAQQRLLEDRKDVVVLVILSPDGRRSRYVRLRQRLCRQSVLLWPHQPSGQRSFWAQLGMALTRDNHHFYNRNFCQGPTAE
Assay type: cell-based
In short: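 Human PBMCs from fresh donor blood (150,000 cells/well) stimulated 14–16 h at 37 °C with DOTAP-complexed ssRNA40 (final 1 μg/ml for TLR8, 10 μg/mL for TLR7) or ODN2216 (final 0.3 μM, TLR9), 0.25% DMSO, ten-point 1/3 compound dilutions. Supernatant IL-6 read by HTRF (TLR8); IFNα by IFNα2b AlphaLISA (TLR7/TLR9).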
In the case of `COCCNC12CCC(Cn3nc(C)c4c3CCN(c3ccnc(-c5ccccc5)c3)C4)(CC1)CC2` [compound 130, N-(2-methoxyethyl)-4-((3-methyl-5-(2-phenylpyridin-4-yl)-4,5,6,7-tetrahydro-1H-pyrazolo[4,3-c]pyridin-1-yl)methyl)bicyclo[2.2.2]octan-1-amine], the IC50 is reported as 672 nM. `Cc1cc(N2CCc3c(c(C)nn3CC34CCC(NC(=O)C5CNC5)(CC3)CC4)C2)c2cnn(C)c2n1` [compound 131, N-(4-((5-(1,6-dimethyl-1H-pyrazolo[3,4-b]pyridin-4-yl)-3-methyl-4,5,6,7-tetrahydro-1H-pyrazolo[4,3-c]pyridin-1-yl)methyl)bicyclo[2.2.2]octan-1-yl)azetidine-3-carboxamide] gave an IC50 greater than 10000 nM. Compound `CCN(C)CC(=O)NC12CCC(Cn3nc(C)c4c3CCN(c3cc(C)nc5c3cnn5C)C4)(CC1)CC2` [compound 132, N-(4-((5-(1,6-dimethyl-1H-pyrazolo[3,4-b]pyridin-4-yl)-3-methyl-4,5,6,7-tetrahydro-1H-pyrazolo[4,3-c]pyridin-1-yl)methyl)bicyclo[2.2.2]octan-1-yl)-2-(ethyl(methyl)amino)acetamide] has an IC50 of 260 nM. Compound `[2H]C([2H])([2H])N(CC(=O)NC12CCC(Cn3nc(C)c4c3CCN(c3cc(C)nc5c3cnn5C)C4)(CC1)CC2)C([2H])([2H])[2H]` [compound 134, 2-(bis(trideuteromethyl)amino)-N-(4-((5-(1,6-dimethyl-1H-pyrazolo[3,4-b]pyridin-4-yl)-3-methyl-4,5,6,7-tetrahydro-1H-pyrazolo[4,3-c]pyridin-1-yl)methyl)bicyclo[2.2.2]octan-1-yl)acetamide] has an IC50 of 299 nM. `Cc1cc(N2CCc3c(c(C)nn3CC34CCC(NCC5(CO)COC5)(CC3)CC4)C2)c2cnn(C)c2n1` [compound 137, (3-(((4-((5-(1,6-dimethyl-1H-pyrazolo[3,4-b]pyridin-4-yl)-3-methyl-4,5,6,7-tetrahydro-1H-pyrazolo[4,3-c]pyridin-1-yl)methyl)bicyclo[2.2.2]octan-1-yl)amino)methyl)oxetan-3-yl)methanol] was tested, and the IC50 was 1280 nM. `CCn1ncc2c(N3CCc4c(c(C)nn4CC45CCC(NC(=O)[C@@H]6COCCN6)(CC4)CC5)C3)cc(C)nc21` [compound 141, (S)-N-(4-((5-(1-ethyl-6-methyl-1H-pyrazolo[3,4-b]pyridin-4-yl)-3-methyl-4,5,6,7-tetrahydro-1H-pyrazolo[4,3-c]pyridin-1-yl)methyl)bicyclo[2.2.2]octan-1-yl)morpholine-3-carboxamide] was tested, and the IC50 was 5170 nM. For `CNCCC(=O)NC12CCC(Cn3nc(C)c4c3CCN(c3cc(C)nc5c3cnn5C)C4)(CC1)CC2` [compound 142, N-(4-((5-(1,6-dimethyl-1H-pyrazolo[3,4-b]pyridin-4-yl)-3-methyl-4,5,6,7-tetrahydro-1H-pyrazolo[4,3-c]pyridin-1-yl)methyl)bicyclo[2.2.2]octan-1-yl)-3-(methylamino)propanamide], the IC50 was greater than 6590 nM. `Cc1cc(N2CCc3c(c(C)nn3CC34CCC(NC5CCC5)(CC3)CO4)C2)c2cnn(C)c2n1` [compound 143, N-cyclobutyl-1-((5-(1,6-dimethyl-1H-pyrazolo[3,4-b]pyridin-4-yl)-3-methyl-4,5,6,7-tetrahydro-1H-pyrazolo[4,3-c]pyridin-1-yl)methyl)-2-oxabicyclo[2.2.2]octan-4-amine] showed an IC50 of 841 nM. Work on `Cc1nn(CC23CCC(NC4CCC4)(CC2)CC3)c2c1CN(c1ccnc(-c3ccccc3)c1)CC2` [compound 144, N-cyclobutyl-4-((3-methyl-5-(2-phenylpyridin-4-yl)-4,5,6,7-tetrahydro-1H-pyrazolo[4,3-c]pyridin-1-yl)methyl)bicyclo[2.2.2]octan-1-amine] yielded an IC50 of 139 nM. For `Cc1cc(N2CCc3c(c(C)nn3CC34CCC(NC(=O)OC(C)(C)C)(CC3)C4)C2)c2cnn(C)c2n1` [compound 148, tert-butyl (4-((5-(1,6-dimethyl-1H-pyrazolo[3,4-b]pyridin-4-yl)-3-methyl-4,5,6,7-tetrahydro-1H-pyrazolo[4,3-c]pyridin-1-yl)methyl)bicyclo[2.2.1]heptan-1-yl)carbamate], the IC50 was greater than 10000 nM.
